Here are results for four compounds from patent EP0399834B1, “1,2,4-Triazole derivatives, their preparation and their use for treating hypertension or respiratory tract disorders” (Beecham Group p.l.c., priority 1989, dated 1990).

In this experiment the test system is Spontaneously hypertensive rats. The experiment can be described thus: Antihypertensive activity: systolic blood pressure by tail cuff method. As to conditions: maximum at 1-4 hours post dose. Type of experiment: in vivo. Here is the method:
Systolic blood pressures were recorded by a modification of the tail cuff method described by I.M. Claxton, M.G. Palfreyman, R.H. Poyser, R.L. Whiting, European Journal of Pharmacology, 37, 179 (1976). A W+W BP recorder, model 8005 was used to display pulses. Prior to all measurements rats were placed in a heated environment (33.5 ± 0.5 °C) before transfer to a restraining cage. Each determination of blood pressure was the mean of at least 6 readings. Spontaneously hypertensive rats (ages 12-18 weeks) with systolic blood pressures >180 mmHg were considered hypertensive.

Regarding `Cn1nc(N)nc1N[C@@H]1c2cc(C#N)ccc2OC(C)(C)[C@H]1O` (relative stereo) [Example E1, N⁵-[trans-4-(6-Cyano-2,3-dihydro-2,2-dimethyl-2H-benzopyran-3-ol)]-1-methyl-1H-1,2,4-triazole-3,5-diamine], for the setting “Dose 0.1 mg/kg”, the “% b.p. fall” value turned out to be 30%.

Turning to `Cn1ncnc1N[C@@H]1c2cc(C#N)ccc2OC(C)(C)[C@H]1O` (relative stereo) [Example E2, trans-N⁵-4-[6-cyano-3,4-dihydro-2,2-dimethyl-2H-benzopyran-3-ol]amino-1-methyl-1H-1,2,4-triazole], the “% b.p. fall” value (Dose 0.3 mg/kg) was determined as 22%.

Regarding `Cc1nc(N[C@@H]2c3cc(C#N)ccc3OC(C)(C)[C@H]2O)n(C)n1` (relative stereo) [Example E4, trans-N⁵-4-[6-Cyano-3,4-dihydro-2,2-dimethyl-2H-benzopyran-3-ol]amino-1,3-dimethyl-1H-1,2,4-triazole], the “% b.p. fall” value (Dose 1.0 mg/kg) came to 22%.

For the compound `Cn1nc(N)nc1N[C@@H]1c2cc(C#N)ccc2OC(C)(C)[C@H]1O` (relative stereo) [Example E7, (3S,4R)-N⁵-[trans-4-(6-cyano-3,4-dihydro-2,2-dimethyl-2H-1-benzopyran-3-ol)]-1-methyl-1H-1,2,4-triazole-3,5-diamine], the “% b.p. fall” value (Dose 0.05 mg/kg) was 45%.
